{"source": "patent US5089273A", "about": "“Ecteinascidins 729, 743, 745, 759A, 759B and 770” (priority 1990, dated 1992)", "format_in_all_cases": "cell-based", "key": {"[1]": {"tested_on": "CV-1 cells", "test": "Cytotoxic activity vs. CV-1 cells (disk zones of inhibition)", "method": "(§1) The antimicrobial activities (vs. M. luteus) and the cytotoxic activities (vs. CV-1 cells) of the ecteinascidins and ecteinascidin 743 derivatives are shown in Table 1 and 2. […] All of the derivatives of ecteinascidin 743 that were prepared have antimicrobial and cytotoxic activities."}, "[2]": {"tested_on": "bacteria", "test": "Antibacterial Activity (disk zone of inhibition, Example 4)", "text": "| Zone of inhibition (mm)"}, "[3]": {"tested_on": "M. luteus", "test": "Antimicrobial activity vs. M. luteus (disk zones of inhibition)", "settings": "for times less potent than ecteinascidins 729 and 743: relative to ecteinascidins 729 and 743; for zone of inhibition at 0.2 µg/disc: 200 ng/6.35-mm disk", "method": "as §1"}, "[4]": {"settings": "Cercopithecidae, read-out: Zones of Inhibition"}, "[5]": {"settings": "Micrococcus luteus, 400 ng/6.35-mm disk"}, "[6]": {"settings": "Micrococcus luteus, 800 ng/6.35-mm disk"}, "[7]": {"settings": "Micrococcus luteus, 1600 ng/6.35-mm disk"}, "[8]": {"settings": "Cercopithecidae, 400 ng/6.35-mm disk, read-out: Zones of Inhibition"}, "[9]": {"settings": "Cercopithecidae, 800 ng/6.35-mm disk, read-out: Zones of Inhibition"}, "[10]": {"settings": "Cercopithecidae, 1600 ng/6.35-mm disk, read-out: Zones of Inhibition"}}, "note": "Where two headings read alike, the source gives them in different places."}
{"compound": "Ecteinascidin 759A", "values": [{"measurement": "Zones of Inhibition", "setting": "[1]; 400 ng/6.35-mm disk", "result": 10, "unit": "mm"}, {"measurement": "Zones of Inhibition", "setting": "[1]; 800 ng/6.35-mm disk", "result": 16, "unit": "mm"}, {"measurement": "Zones of Inhibition", "setting": "[1]; 1600 ng/6.35-mm disk", "result": 16, "unit": "mm"}, {"measurement": "Zone of inhibition", "setting": "[2]; 1 μg/disk", "result": 9, "unit": "mm"}, {"measurement": "Zones of Inhibition", "setting": "[3]; 800 ng/6.35-mm disk", "result": 8, "unit": "mm"}, {"measurement": "Zones of Inhibition", "setting": "[3]; 1600 ng/6.35-mm disk", "result": 10, "unit": "mm"}, {"measurement": "times less potent than ecteinascidins 729 and 743", "setting": "[3]", "result": "four to eight times less potent"}]}
{"compound": "COc1cc2c(cc1OC)[C@@]1(CS[C@@H]3c4c(OC(C)=O)c(C)c5c(c4[C@H](COC1=O)N1[C@@H]3[C@H]3c4c(cc(C)c(OC)c4O)C[C@@H]([C@@H]1O)N3C)OCO5)NCC2", "note": "[Mono- -- O-methyl, Mono-O-methylecteinascidin 743]", "values": [{"measurement": "zone of inhibition at 0.05 µg/disc", "setting": "[1]; [4]", "result": 13, "unit": "mm"}, {"measurement": "zone of inhibition at 0.1 µg/disc", "setting": "[1]; [4]", "result": 22, "unit": "mm"}, {"measurement": "zone of inhibition at 0.2 µg/disc", "setting": "[1]; [4]", "result": 20, "unit": "mm"}, {"measurement": "zone of inhibition at 0.4 µg/disc", "setting": "[1]; [4]", "result": 23, "unit": "mm"}, {"measurement": "zone of inhibition at 0.8 µg/disc", "setting": "[1]; [4]", "result": 25, "unit": "mm"}, {"measurement": "zone of inhibition at 1.6 µg/disc", "setting": "[1]; [4]", "result": 26, "unit": "mm"}, {"measurement": "zone of inhibition at 0.2 µg/disc", "setting": "[3]; Micrococcus luteus", "result": 8, "unit": "mm"}, {"measurement": "zone of inhibition at 0.4 µg/disc", "setting": "[3]; [5]", "result": 11, "unit": "mm"}, {"measurement": "zone of inhibition at 0.8 µg/disc", "setting": "[3]; [6]", "result": 14, "unit": "mm"}, {"measurement": "zone of inhibition at 1.6 µg/disc", "setting": "[3]; [7]", "result": 14, "unit": "mm"}]}
{"compound": "COc1cc2c(cc1O)CCN[C@]21CS[C@@H]2c3c(O)c(C)c4c(c3[C@H](COC1=O)N1[C@@H]2[C@H]2c3c(cc(C)c(OC)c3O)C[C@@H]([C@@H]1O)N2C)OCO4", "note": "[Deacetyl, Deacetylecteinascidin 743]", "values": [{"measurement": "zone of inhibition at 0.4 µg/disc", "setting": "[1]; [8]", "result": 11, "unit": "mm"}, {"measurement": "zone of inhibition at 0.8 µg/disc", "setting": "[1]; [9]", "result": 15, "unit": "mm"}, {"measurement": "zone of inhibition at 1.6 µg/disc", "setting": "[1]; [10]", "result": 16, "unit": "mm"}, {"measurement": "zone of inhibition at 0.1 µg/disc", "setting": "[3]; Micrococcus luteus, 100 ng/6.35-mm disk", "result": 8, "unit": "mm"}, {"measurement": "zone of inhibition at 0.2 µg/disc", "setting": "[3]; Micrococcus luteus", "result": 10, "unit": "mm"}, {"measurement": "zone of inhibition at 0.4 µg/disc", "setting": "[3]; [5]", "result": 12, "unit": "mm"}, {"measurement": "zone of inhibition at 0.8 µg/disc", "setting": "[3]; [6]", "result": 14, "unit": "mm"}, {"measurement": "zone of inhibition at 1.6 µg/disc", "setting": "[3]; [7]", "result": 16, "unit": "mm"}]}
{"compound": "COc1cc2c(cc1OC(=O)c1ccc(Br)cc1)CCN[C@]21CS[C@@H]2c3c(OC(C)=O)c(C)c4c(c3[C@H](COC1=O)N1[C@@H]2[C@H]2c3c(cc(C)c(OC)c3O)C[C@@H]([C@@H]1O)N2C)OCO4", "note": "[p-Bromobenzoyl, p-Bromobenzoylecteinascidin 743]", "values": [{"measurement": "zone of inhibition at 0.2 µg/disc", "setting": "[1]; Cercopithecidae, 200 ng/6.35-mm disk, read-out: Zones of Inhibition", "result": 10, "unit": "mm"}, {"measurement": "zone of inhibition at 0.4 µg/disc", "setting": "[1]; [8]", "result": 12, "unit": "mm"}, {"measurement": "zone of inhibition at 0.8 µg/disc", "setting": "[1]; [9]", "result": 16, "unit": "mm"}, {"measurement": "zone of inhibition at 1.6 µg/disc", "setting": "[1]; [10]", "result": 18, "unit": "mm"}, {"measurement": "zone of inhibition at 0.4 µg/disc", "setting": "[3]; [5]", "result": 8, "unit": "mm"}, {"measurement": "zone of inhibition at 0.8 µg/disc", "setting": "[3]; [6]", "result": 10, "unit": "mm"}, {"measurement": "zone of inhibition at 1.6 µg/disc", "setting": "[3]; [7]", "result": 12, "unit": "mm"}]}
{"compound": "COc1cc2c(cc1O)CCN[C@]21C[S+]([O-])[C@@H]2c3c(OC(C)=O)c(C)c4c(c3[C@H](COC1=O)N1[C@H]2[C@H]2c3c(cc(C)c(OC)c3O)C[C@@H]([C@H]1O)N2C)OCO4", "note": "(stereo partly shown) [Ecteinascidin 759B]", "values": [{"measurement": "Zones of Inhibition", "setting": "[1]; 100 ng/6.35-mm disk", "result": 11, "unit": "mm"}, {"measurement": "Zones of Inhibition", "setting": "[1]; 200 ng/6.35-mm disk", "result": 13, "unit": "mm"}, {"measurement": "Zones of Inhibition", "setting": "[1]; 400 ng/6.35-mm disk", "result": 15, "unit": "mm"}, {"measurement": "Zones of Inhibition", "setting": "[1]; 800 ng/6.35-mm disk", "result": 22, "unit": "mm"}, {"measurement": "Zones of Inhibition", "setting": "[1]; 1600 ng/6.35-mm disk", "result": 22, "unit": "mm"}, {"measurement": "Zone of inhibition", "setting": "[2]; 0.1 μg/disk", "result": 9, "unit": "mm"}, {"measurement": "Zone of inhibition", "setting": "[2]; 1 μg/disk", "result": 15, "unit": "mm"}, {"measurement": "Zones of Inhibition", "setting": "[3]; 400 ng/6.35-mm disk", "result": 10, "unit": "mm"}, {"measurement": "Zones of Inhibition", "setting": "[3]; 800 ng/6.35-mm disk", "result": 13, "unit": "mm"}, {"measurement": "Zones of Inhibition", "setting": "[3]; 1600 ng/6.35-mm disk", "result": 15, "unit": "mm"}, {"measurement": "times less potent than ecteinascidins 729 and 743", "setting": "[3]", "result": "four to eight times less potent"}]}
